# From article PMC5341405, “Lapachol, a compound targeting pyrimidine metabolism, ameliorates experimental autoimmune arthritis” (Arthritis Research & Therapy, 2017)
# Read-outs that look alike come from different tables or passages of the source.
# Key:
# [1] = Pharmacokinetics after oral administration; format: in vivo, Wistar rats; conditions: for AUC(0-inf) / k el / Cmax / MRT / Tmax / half-life: Wistar, rat, plasma; for AUC(0-inf): po; for k el: read-out: Ke (converted)
# Procedure: For administration to Wistar rats, LAP was dissolved in DMSO:Tween 80:glucose 5% in a proportion of 15:5:80 (v/v/v), resulting in a solution of 1 mg/ml (for intravenous (i.v.) administration) and another of 5 mg/ml (for oral administration). LAP was administered to rats as an i.v. bolus dose at 2 mg/kg (n = 7) and at two oral doses of 10 (n = 8) and 25 mg/kg (n = 6). LAP salt was administered as i.v. (2 mg/kg, n = 6) and oral doses (30 mg/kg equivalent to 27.5 mg/kg of LAP, n = 8). The i.v. doses were injected into the lateral tail vein, and oral doses were given by gavage. The doses were chosen based on previous toxicological and pharmacodynamic studies. At predetermined time points (30 min before dosing and at 0.08, 0.25, 0.5, 1, 2, 4, 6, 8, 12, and 24 h) after LAP i.v. administration, blood samples (200–250 μl) were withdrawn into heparinized tubes via puncture of the lateral tail vein, opposite to the vein used for drug dosing. The same procedure was carried out after oral administration of LAP, with blood sampling at 0.25, 0.5, 1, 1.5, 2, 3, 6, 12, 24, and 30 h. After LAP sodium salt i.v. and oral dosing, blood samples were harvested up to 10 and 12 h, respectively. Plasma was obtained by centrifugation of blood samples (6800 × g, at 4 °C for 10 min) and stored at –80 °C until analysis by UPLC-MS/MS.
# LAP and LAP sodium salt pharmacokinetic parameters after i.v. and oral administration were determined from individual plasma profiles by a noncompartmental approach (NCA). The peak plasma concentration (Cmax) and the time of maximum concentration (Tmax) were obtained by visual inspection of the data from the plasma concentration–time curve after oral dosing. Pharmacokinetic parameters such an elimination rate constant (λ), area under the curve (AUC0–∞), clearance (CLtot), half-life (t1/2), volume of distribution (Vdss), mean residence time (MRT), and bioavailability (Fabs) were determined using classical equations. The compartmental analyses were performed using SCIENTIST v.2.0.1 software (MicroMath®, USA). One- and two-compartment models with or without weighting schemes were evaluated. The best model to fit the data was chosen based on the random distribution of residuals, the correlation coefficient, and the model selection criterion (MSC) given by the software.
# The individual plasma profiles of LAP and LAP sodium salt after i.v. administration were best described by a two-compartmental open model. Plasma profiles after oral administration with two different doses of LAP and one dose of LAP sodium salt were best described by the one-compartmental model.
# LAP concentration in plasma samples was determined by a validated (FDA, US Food and Drug Administration, 2001) UPLC-MS/MS method. Analyses were run on an Acquity UPLC BEH (Waters Acquity™) C18 column (2.1 × 50 mm, 1.7 μm particle size), with a flow of 300 μl/min at 35 °C. A gradient constituted of water (A) and acetonitrile (B) acidified with 0.1% acetic acid was used as follows: 0 min (90% A), 1 min (75% A), 7 min (50% A), 8.5 min (0% A) and 9.5 min (100% A). For the triple quadrupole, MS parameters were set as follows: capillary voltage (2.20 kV); extractor (3.0 V) source temperature (150 °C), desolvation temperature (300 °C), cone gas flow (50 l/h), and desolvation gas flow (700 l/h). For quantification, a multiple reaction monitoring method (MRM) was applied. For LAP, the transition of m/z 243 > 187 using cone energy of 24 V and collision energy of 19 V was determined as most appropriate for quantification (Calibration curves between 1 and 20,000 ng/ml of LAP, R > 0.99, low quantification limit of 1 ng/ml, and detection limit of 0.1 ng/ml).
# A total of 200 μl cold acetonitrile containing internal standard (2-methyl-amino-lapachol) at 5 μg/ml and 0.05% trifluoroacetic acid was added to 100 μl of plasma and vortexed for 20 s. Precipitated protein was removed by centrifugation (6800 × g at 4 °C for 10 min). […]
# [2] = Tolerability and serum liver enzymes during CIA protocol; format: in vivo, DBA1/J mice
# Procedure: Male DBA/1 J mice were injected i.d. at the base of the tail with 200 μg bovine type II collagen (CII; a gift from Dr. David D. Brand, University of Tennessee Health Science Center) emulsified in Freund’s complete adjuvant (CFA) on day 0. Mice were boosted i.d. with CII (200 μg emulsified in Freund’s incomplete adjuvant (IFA)) on day 21. Mice were monitored daily for signs of arthritis. Scores were assigned based on erythema, swelling, or ankylosis present in each paw on a scale of 0 to 3, giving a maximum score of 12 per mouse. After arthritis induction, mice were treated orally with LAP (3 mg/kg and 10 mg/kg) or LEF (3 mg/kg) or saline daily. The clinical score was addressed every day after collagen boost. All mice were euthanized for histologic assessment of the hind limbs 4 weeks after the boost.
# Serum concentrations of aspartate aminotransferase (AST) or alanine aminotransferase (ALT) were measured using commercial kits according to the manufacturer’s instructions (ID Labs Biotechnology Inc., London, Canada).
# [3] = tested on: DHODH; design: method as in PMID 10658902; conditions: cited from earlier work
structure (smiles),measurement,setting,value
"CC(C)=CCC1=C(O)C(=O)c2ccccc2C1=O [LAP, 2-hydroxy-3-(3methyl-2-butenyl)-1,4-naphthoquinone]",Ka,"[1]; 10 mg/kg oral LAP, 1-Comp",2.61 ± 0.85 h⁻¹
same,t1/2ß,"[1]; 10 mg/kg oral LAP, 1-Comp",4.2 ± 0.3 h
same,Fabs,"[1]; 10 mg/kg oral LAP, NCA",77%
same,l,"[1]; 10 mg/kg oral LAP, NCA",0.16 ± 0.01 h⁻¹
same,Ka,"[1]; 25 mg/kg oral LAP, 1-Comp",2.93 ± 0.79 h⁻¹
same,Vdss,"[1]; 25 mg/kg oral LAP, 1-Comp",0.24 ± 0.04 L/kg
same,t1/2ß,"[1]; 25 mg/kg oral LAP, 1-Comp",4.4 ± 0.6 h
same,Fabs,"[1]; 25 mg/kg oral LAP, NCA",65%
same,l,"[1]; 25 mg/kg oral LAP, NCA",0.19 ± 0.03 h⁻¹
same,AUC(0-inf),"[1]; 10 mg/kg, 10 mg/kg oral LAP, 1-Comp",237 ± 20.2 µg·h/mL
same,AUC(0-inf),"[1]; 10 mg/kg, 10 mg/kg oral LAP, NCA",217 ± 22 µg·h/mL
same,AUC(0-inf),"[1]; 25 mg/kg, 25 mg/kg oral LAP, 1-Comp",434 ± 79.7 µg·h/mL
same,AUC(0-inf),"[1]; 25 mg/kg, 25 mg/kg oral LAP, NCA",449 ± 78.1 µg·h/mL
same,k el,"[1]; 10 mg/kg oral LAP, 1-Comp",4.72e-05 s⁻¹
same,Cmax,"[1]; 10 mg/kg oral LAP, NCA",31600 ± 3800 ng/mL
same,MRT,"[1]; 10 mg/kg oral LAP, NCA",7.2 ± 0.6 h
same,Tmax,"[1]; 10 mg/kg oral LAP, NCA",1.2 ± 0.3 h
same,half-life,"[1]; 10 mg/kg oral LAP, NCA",3.2 ± 0.2 h
same,k el,"[1]; 25 mg/kg oral LAP, 1-Comp",4.44e-05 s⁻¹
same,Cmax,"[1]; 25 mg/kg oral LAP, NCA",65600 ± 10600 ng/mL
same,MRT,"[1]; 25 mg/kg oral LAP, NCA",7.2 ± 0.7 h
same,Tmax,"[1]; 25 mg/kg oral LAP, NCA",1.3 ± 0.4 h
same,half-life,"[1]; 25 mg/kg oral LAP, NCA",3.6 ± 0.5 h
same,serum levels of ALT or AST,"[2]; 3 mg/kg and 10 mg/kg orally daily, CIA protocol, 4 wk after boost",did not alter the serum levels of ALT or AST
same,"tolerability (general symptoms of toxicity: piloerection, diarrhea, weight loss, prostration)","[2]; 3 mg/kg and 10 mg/kg orally once a day for 4 weeks, CIA mice",well tolerated without apparent side effects
same,inhibition of DHODH activity,[3],can inhibit DHODH activity
